In ChEMBL document CHEMBL3507680, “University of Dundee, Gates Library screen for HepG2 cell viability” one finds cytotoxicity data, which are given here for 95 molecules.

The nature of the data set: Human HepG2 cell viability assay in 384 well format. Format: toxicity, cell-based. Also noted: dose 125 nL, time 70.5 hour; cytotoxicity at 70.5 h: concentration not given beside the values. The following applies: HepG2 cells, read-out: Inhibition.
As for `COCc1cncc2c1CCN(C(=O)c1ccc(C)o1)C2`, the cytotoxicity at 70.5 h amounted to 4.32%.
As for `N#Cc1cccc(C(=O)N2CCc3ncc(Cn4cccn4)n3CC2)c1`, the cytotoxicity at 70.5 h turned out to be 8.26%.
Regarding `COCC1c2c(cnn2CC2CC2)CCN1Cc1ccc(OC)cc1` (stereo not given), the cytotoxicity at 70.5 h is 49.3%.
Next, `CNC(=O)[C@H]1C[C@@H]2CN(C(=O)c3cscn3)C[C@@H]2N1S(C)(=O)=O`: -1.08%; `c1ccc(CN2CC[C@H]3CO[C@H](CNc4ncccn4)[C@H]3C2)nc1`: -0.901%; `CCS(=O)(=O)N1CCO[C@H]2[C@H](OCC3CCCC3)CC[C@@H]21`: -13.9%.
Take `O=S(=O)(C1CC1)N1CCO[C@H]2[C@H](OCC3CCCC3)CC[C@@H]21`: the cytotoxicity at 70.5 h is 1.94%.
In the case of `CCS(=O)(=O)N1Cc2nccn2CC(COc2cccnc2)C1` (stereo not given), the cytotoxicity at 70.5 h was -2.17%.
In the case of `COc1ncnc2c1CCN(c1cc(C(F)(F)F)ncn1)CC2`, the cytotoxicity at 70.5 h is -6.15%.
For `CN1CC2(COCCN(C(=O)c3ccco3)C2)OCC1=O` (stereo not given), the cytotoxicity at 70.5 h amounted to 6.17%.
Next, `O=C(c1ccco1)N1CCOCC2(C1)CN(c1ccccc1)C(=O)CO2` (stereo not given): -5.76%.
With `Cn1cc(CN2CCCn3cnc(CN4CCCC4=O)c3C2)cn1`, the cytotoxicity at 70.5 h is -17.3%.
As for `CCC1=N[C@@]2(CC[C@@H]3CN(C(=O)NCC(C)C)C[C@@H]32)C(=O)N1CC(C)C`, the cytotoxicity at 70.5 h was -9.11%.
For `Cn1cnc2c1C(COCc1cccnc1)N(Cc1ccccn1)CC2` (stereo not given), the cytotoxicity at 70.5 h is -3.62%.
Take `CN1CCCC1(CCCc1cccnc1)C(=O)NCc1nccn1C` (stereo not given): the cytotoxicity at 70.5 h was -1.26%.
In the case of `O=C(C1CCOCC1)N1CCCC1c1cncc(CN2CCCC2)n1` (stereo not given), the cytotoxicity at 70.5 h is -0.0308%.
`COCC(=O)N1CCN(C)CC(Cc2cc(N(C)C)ncn2)C1` (stereo not given): the cytotoxicity at 70.5 h was -3.09%.
The result for `Cc1c[nH]c(C2CN(Cc3ccccc3C(=O)O)CCO2)n1` (stereo not given) reads -1.83%.
Consider `CC(C)=CCCC1(C)C=Cc2c(cc(C)n(CC(=O)O)c2=O)O1` (stereo not given), for which the cytotoxicity at 70.5 h was -3.4%.
`Cc1ccc(CC2COCCN(S(=O)(=O)c3ccccc3)C2)nc1` (stereo not given): the cytotoxicity at 70.5 h was -0.967%.
In the case of `CCN(CC)S(=O)(=O)N1CCC(c2c(C(N)=O)sc3ccccc23)C1` (stereo not given), the cytotoxicity at 70.5 h was -3.04%.
Take `CC(C)c1cn(CC(=O)NC2CC(=O)N(CCc3ccccc3)C2)nn1` (stereo not given): the cytotoxicity at 70.5 h was -3.95%.
Regarding `CNC(=O)c1ccc(-c2ccc(CNS(=O)(=O)N(C)C)cc2)nc1C`, the cytotoxicity at 70.5 h was -0.408%.
Consider `Cc1cccc(CNC(=O)CC2CCN(S(C)(=O)=O)CC2)n1`, for which the cytotoxicity at 70.5 h was -4.65%.
For the molecule `O=C(C1CCOCC1)N1C[C@H]2C[C@H](OCc3ccccc3)C[C@H]2C1`, the cytotoxicity at 70.5 h was -3.41%.
Take `O=C(CC1CCN(c2cccnn2)CC1)NC1CCOCC1`: the cytotoxicity at 70.5 h is -17%.
The result for `CNC(=O)c1ccc(-c2ccc(CNC(=O)COC)cc2)nc1C` reads -10.8%; that for `Cc1cc(Cc2ccccc2F)cc(C2CCCNC2)n1` (stereo not given), -1.65%.
Regarding `CC(=O)N1CCCC1c1nccnc1NCc1cccnc1` (stereo not given), the cytotoxicity at 70.5 h is -8.19%.
With `COCC(=O)N1CCCC1c1nc(C)c2c(n1)N(CC(C)C)C(=O)CC2` (stereo not given), the cytotoxicity at 70.5 h was -6.03%.
`CC(=O)N1CCC(c2cnc(NC3CCOCC3)cn2)CC1`: the cytotoxicity at 70.5 h is -6.84%.
For the molecule `O=C(O)c1ccccc1-c1ccc(CN2CCC(CO)C2)cc1` (stereo not given), the cytotoxicity at 70.5 h is -6.69%.
The result for `CC(C)C[C@H](N)COc1cccc(F)c1Oc1cccc(Cl)c1` reads 26.3%; that for `Cc1cnc(CCNC(=O)C2CN(C(=O)Cc3ccc(F)cc3)C2)s1`, 15.9%.
`CCCN1CCCCCC1Cc1c(C(=O)NC)sc2ccccc12` (stereo not given): the cytotoxicity at 70.5 h came out at 27.8%.
As to `Cn1cnc2ccc(NC(=O)CC3CCN(C4CCCCC4)CC3)cc21`, the cytotoxicity at 70.5 h is -4.48%.
For `Cc1ccnc(C2CCN(c3ccnc(C)n3)C2)n1` (stereo not given), the cytotoxicity at 70.5 h was -12.3%.
As to `CN1C(=O)CO[C@H]2CN(C(=O)c3ccc4c(c3)CCCC4)C[C@@H]21`, the cytotoxicity at 70.5 h stood at 8.95%.
As to `Nc1nc(N)c2c(n1)OC1(CCCN(Cc3nccs3)CC1)C2` (stereo not given), the cytotoxicity at 70.5 h was -9.72%.
The result for `CC(=O)N1CCCCC[C@@H]2[C@@H]1[C@H](c1cccc(F)c1)CN2C(C)=O` reads -10.6%; that for `CC(=O)N1CCCCC[C@@H]2[C@@H]1[C@H](c1cccc(F)c1)CN2C(=O)C1CC1`, -3.31%.
As to `CC(C)n1nnc(CC(=O)NCC2(c3ccccc3F)CCOCC2)n1`, the cytotoxicity at 70.5 h is -8.63%.
Regarding `Nc1c(C(=O)C2CCCN(C(=O)C3CC3)C2)cnn1-c1ccc(F)cc1` (stereo not given), the cytotoxicity at 70.5 h is -2.33%.
In the case of `Cc1cc(C)nc(N2CCC(c3cc(CCO)[nH]n3)C2)n1` (stereo not given), the cytotoxicity at 70.5 h is -12.4%.
The result for `O=C1CN(C(=O)C2CN(c3ccc(F)cc3)CCO2)CCN1` (stereo not given) reads -7.29%; that for `NCCC(=O)NCC1(O)CCCN(c2ccnc3cccnc23)C1` (stereo not given), -3.53%.
As to `CC(=O)N1CC(C(=O)NCCc2ncc(C)s2)C1`, the cytotoxicity at 70.5 h is -5.34%.
For the molecule `c1ccc(Cc2cncc(C3CCCN3C3CCOCC3)n2)cc1` (stereo not given), the cytotoxicity at 70.5 h was -6.45%.
For `Cc1cc(C)nc(N2CCC(Cn3cc(C(N)=O)cn3)CC2)n1`, the cytotoxicity at 70.5 h is -7.04%.
As to `CN1CCCCC1CC(=O)Nc1ccc2ncn(C)c2c1` (stereo not given), the cytotoxicity at 70.5 h is 13.5%.
Next, `Cc1cc(C(=O)N(C)C)nc(C2(C)CCCN2c2ccnc(C)n2)n1` (stereo not given): -6.87%; `Cc1ccnc(C2CN(c3ccnc(C)n3)C2)n1`: -5.49%; `Cn1cc(CN2CCC(c3ccncc3)CC2)cn1`: -9.54%.
`Cc1cc(C)nc(N2CCC(Cn3cc(C(=O)N(C)C)cn3)CC2)n1`: the cytotoxicity at 70.5 h was -3.57%.
The result for `Cc1cc(NCC2CCCCC2)n2ncnc2n1` reads -2.65%; that for `NCCCC(=O)NCC1(O)CCCN(c2ccnc3cccnc23)C1` (stereo not given), -4.51%; that for `Cc1ncc(-c2ccncc2)c(C2CCCN(C(=O)c3ccno3)C2)n1` (stereo not given), 5.49%.
Turning to `CS(=O)(=O)c1cncnc1C1CCCN(C(=O)Nc2ccc(F)cc2)C1` (stereo not given), the cytotoxicity at 70.5 h is -4.34%.
With `CS(=O)(=O)c1cncnc1C1CCCN(C(=O)Cc2ccccc2F)C1` (stereo not given), the cytotoxicity at 70.5 h was -7.69%.
Next, `Cc1nc(C2CCN(S(C)(=O)=O)CC2)nc(N2CCCC2)c1C`: -3.13%; `O=C(c1cc(-c2cccnc2)[nH]n1)N1CCCC(c2cnccn2)C1` (stereo not given): 12%; `Cc1cccc(NC(=O)c2cnc(C3CCCNC3)cn2)n1` (stereo not given): -2.31%.
For the molecule `CN1CCCCC1c1cncc(N2CCC(O)CC2)n1` (stereo not given), the cytotoxicity at 70.5 h is -0.469%.
In the case of `COCC1CN(C(C)=O)CCN(c2cc(C)ncn2)C1` (stereo not given), the cytotoxicity at 70.5 h came out at 10.4%.
Take `Cc1nn(C)cc1-c1cncn1CCN(C)C1CCCC1`: the cytotoxicity at 70.5 h was -5%.
On to `Cc1nc(Nc2nnc(C)s2)cc(C2CCCN2)n1` (stereo not given), for which the cytotoxicity at 70.5 h is -6.91%.
`O=C(O)C1(Cc2cccc(-c3cccs3)c2)CCCNC1` (stereo not given): the cytotoxicity at 70.5 h was 14.3%.
The result for `CCn1ccnc1CN1CCN(c2cc(C)nc(C3CCCN3)c2)CC1` (stereo not given) reads -5.1%; that for `Fc1ccc(-c2cnc(C3CCCN3)cn2)cc1` (stereo not given), -2.54%.
In the case of `CN(Cc1ccco1)Cc1cncc2c1CCN(c1ncccn1)C2`, the cytotoxicity at 70.5 h stood at 7.69%.
In the case of `c1cc(CN2CCC(c3ccc4c(c3)OCO4)CC2)ccn1`, the cytotoxicity at 70.5 h was -1.06%.
Next, `CCN1CCn2c(C)cnc2C12CCN(C(=O)c1ccc(Cl)cc1)CC2`: -11.3%; `O=C(c1ccc(F)cc1)N1C[C@@H]2OCCN(c3ncccn3)[C@@H]2C1`: 4.02%.
With `CNC(=O)[C@@H]1C[C@H]2CN(C(=O)c3ccco3)C[C@H]2N1C`, the cytotoxicity at 70.5 h was 2.59%.
For `CC(C)CCN1CCC2(CC1)CN(C(=O)c1cnccn1)CCO2`, the cytotoxicity at 70.5 h is 1.9%.
On to `O=S(=O)(C1CC1)N1CCO[C@H]2[C@H](OCCN3CCCC3)CC[C@@H]21`, for which the cytotoxicity at 70.5 h was found to be 23.9%.
`Cc1nc(CN2C(=O)CCC23CCN(c2ncccn2)CC3)cs1`: the cytotoxicity at 70.5 h is -8.07%.
Regarding `CCS(=O)(=O)N1CCO[C@H]2[C@H](OCCCn3cccn3)CC[C@@H]21`, the cytotoxicity at 70.5 h was -9.45%.
As for `CN(C)CCO[C@@H]1CC[C@H]2[C@H]1OCCN2C(=O)CCc1ccccc1`, the cytotoxicity at 70.5 h was -12.8%.
Turning to `O=C(NCc1ccco1)[C@H]1C[C@H]2OCC[C@H]2N(C(=O)c2ccncc2)C1`, the cytotoxicity at 70.5 h was -12.4%.
The result for `CCOCC1CN(C(=O)CS(C)(=O)=O)Cc2cnn(C)c21` (stereo not given) reads -14.4%; that for `Fc1cnc(N2CCO[C@H]3CN(CC4CCCC4)C[C@H]32)nc1`, -13%; that for `O=S(=O)(c1cccs1)N1CCCn2cnc(CN3CCCC3)c2C1`, 23.3%.
`O=C(NC1CC1)[C@H]1C[C@H]2OCC[C@H]2N(CC2CCOCC2)C1`: the cytotoxicity at 70.5 h stood at 22.7%.
As to `Cc1nc(CN2CCC3(CCCN(Cc4cnn(C)c4)C3)C2=O)cs1` (stereo not given), the cytotoxicity at 70.5 h stood at 0.731%.
With `COCC1c2c(cnn2CC2CC2)CCN1Cc1nccs1` (stereo not given), the cytotoxicity at 70.5 h was -4.64%.
As for `O=C(NC1CCC1)[C@@H]1C[C@@H]2CCN(Cc3ccncc3)C[C@H]2O1`, the cytotoxicity at 70.5 h was -4.89%.
Next, `O=C(NCC1CCOCC1)[C@H]1C[C@@H]2CCN(Cc3ccncc3)C[C@@H]2O1`: -1.08%; `Cc1ccc(CN2CCc3ncnc(-c4cccnc4)c3CC2)o1`: -5.88%.
As for `Fc1cnc(N2CCn3cc(CNc4ccccn4)nc3C2)nc1`, the cytotoxicity at 70.5 h was -17.4%.
On to `COCC(=O)N1CCC2(CC1)COCCN2CCN(C)C`, for which the cytotoxicity at 70.5 h was -19.5%.
Turning to `CN(Cc1cncnc1)Cc1cn2c(n1)CN(C1CCOC1)CC2` (stereo not given), the cytotoxicity at 70.5 h is -13.2%.
`CC(=O)N1CCC2(CC1)COCCN2CCN(C)C`: the cytotoxicity at 70.5 h is -10.7%.
As for `c1ccc(OC[C@]23COC[C@H]2CN(Cc2ccoc2)C3)nc1`, the cytotoxicity at 70.5 h is -12.9%.
`c1ccc(CN2CCO[C@H]3[C@H](OCCN4CCCC4)CC[C@@H]32)nc1`: the cytotoxicity at 70.5 h was -7.8%.
